The record followed here is patent US8410302B2, “Methoxyimino compounds and fungicide composition comprising same” (Kyung Nong Corporation, priority 2007, dated 2013).

The subject of experiment [1] is Puccinia recondita. The experiment is described as follows: Fungicidal activity against wheat leaf rust (WLR) disease, control value. Particulars: wheat leaf rust, read-out: WLR control value (C.V.). Type of experiment: in vivo.
For experiment [2], the system named is Botrytis cinerae. The experiment in a line: Fungicidal activity against cucumber gray mold rot (CGM) disease, control value. The following applies: Botrytis; 100 ppm, cucumber gray mold rot; read-out: CGM control value (C.V.). Type of experiment: in vivo. As for the experimental part: Botrytis cinerae, which was isolated from cucumber infected thereby, was inoculated on a potato agar medium (PEC) and cultured under a 12L/12D cycle at 25° C. for 15 days to form spore. The spores were scraped, filtered through a gauze and then suspended in Potato Dextrose broth at a concentration of 1×10^6 spore/ml. The spore suspension was sprayed on a cucumber plant having one leaf. The cucumber plant was held in a humidified room at 20° C. for 3 days. L.A. on a leaf was measured to calculate a C.V.

Experiment [3] concerns Pyricularia oryzae Carvara KA301. The experiment is described as follows: whole plant or invertebrate. Type of experiment: in vivo. Particulars: Pyricularia oryzae, read-out: RCB control value (C.V.).
Experiment [4] concerns Rhizoctonia solani AG-1. The experiment is described as follows: Fungicidal activity against rice sheath blight (RSB) disease, control value. Particulars: Rhizoctonia solani, AG1, in Oryza sativa, read-out: RSB control value (C.V.).
Experiment [5] has as its system Phytophthora infestans. The experiment in a line: whole plant or invertebrate. In kind it is in vivo. Particulars: Phytophthora infestans, in Solanum lycopersicum, read-out: TLB control value (C.V.).
Experiment [6] concerns Erysiphae graminis. The experiment is described as follows: Fungicidal activity against barley powdery mildew (BPM) disease, control value. The following applies: Hordeum vulgare, 168 h, barley powdery mildew, read-out: BPM control value (C.V.). In kind it is in vivo.

For the compound `CO/N=C(/C(=O)OC)c1ccccc1COc1ccc(C=C(Cl)Cl)cc1` [Example 3, methyl-(E)-2-(2-((4-(2,2-dichlorovinyl)phenoxy)methyl)phenyl)-2-methoxyiminoacetate], the pest or weed control at 2 ppm in experiment [1] worked out at 40%; in experiment [3], 30%; in experiment [5] it was 0%; in experiment [6], 20%. In addition, the pest or weed control at 10 ppm is 90% in experiment [1], 90% in experiment [3], 35% in experiment [5] and 50% in experiment [6]. In addition, the pest or weed control at 50 ppm in experiment [1] amounted to 100%; in experiment [3], 100%; in experiment [5], 95%; in experiment [6], 95%. Also, the pest or weed control at 100 ppm in experiment [1] worked out at 100%; in experiment [2], 50%; in experiment [3], 100%; in experiment [4] it was 60%; in experiment [5] it was 98%; in experiment [6], 95%.

`CNC(=O)/C(=N/OC)c1ccccc1COc1ccc(C=C(Cl)Cl)cc1` [Example 4, (E)-2-(2-((4-(2,2-dichlorovinyl)phenoxy)methyl)phenyl)-2-methoxyimino-N-methylacetamide]: the pest or weed control at 2 ppm in experiment [1] worked out at 100%; in experiment [3], 100%; in experiment [4], 90%; in experiment [5], 100%; in experiment [6], 100%. The pest or weed control at 10 ppm came out at 100% in experiment [1]; 100% in experiment [3]; 98% in experiment [4]; 100% in experiment [5]; 100% in experiment [6]. Also, the pest or weed control at 50 ppm in experiment [1], in experiment [3], in experiment [4], in experiment [5] and in experiment [6] was 100% each time. Besides, the pest or weed control at 100 ppm in experiment [1] was determined as 100%; in experiment [2], 75%; in experiment [3] it was 100%; in experiment [4], 100%; in experiment [5], 100%; in experiment [6], 100%.

As to `CO/N=C(/C(=O)OC)c1ccccc1COc1cccc(C=C(Br)Br)c1` [Example 5, methyl-(E)-2-(2-((3-(2,2-dibromovinyl)phenoxy)methyl)phenyl)-2-methoxyiminoacetate], the pest or weed control at 100 ppm in experiment [1] was 92%; in experiment [2] it was 34%; in experiment [3], 100%; in experiment [4] it was 32%; in experiment [5] it was 93%; in experiment [6], 87%. Also, the pest or weed control at 2 ppm in experiment [3] amounted to 90%. The pest or weed control at 10 ppm in experiment [3] stood at 97%. Besides, the figures for the pest or weed control at 50 ppm in experiment [3] and in experiment [5] were 100% and 55%, respectively.

Consider `CNC(=O)/C(=N/OC)c1ccccc1COc1cccc(C=C(Br)Br)c1` [Example 6, (E)-2-(2-((3-(2,2-dibromovinyl)phenoxy)methyl)phenyl)-2-methoxyimino-N-methylacetamide], for which the pest or weed control at 2 ppm is 0% in experiment [1], 98% in experiment [3], 30% in experiment [4] and 0% in experiment [6]. The pest or weed control at 10 ppm in experiment [1] turned out to be 35%; in experiment [3], 100%; in experiment [4], 90%; in experiment [6], 30%. Also, the pest or weed control at 50 ppm in experiment [1] was 95%; in experiment [3], 100%; in experiment [4], 100%; in experiment [6], 90%. Moreover, the pest or weed control at 100 ppm worked out at 98% in experiment [1]; 60% in experiment [2]; 100% in experiment [3]; 100% in experiment [4]; 50% in experiment [5]; 97% in experiment [6].

Regarding `CO/N=C(/C(=O)OC)c1ccccc1COc1ccc(C=C(Br)Br)cc1` [Example 7, methyl-(E)-2-(2-((4-(2,2-dibromovinyl)phenoxy)methyl)phenyl)-2-methoxyiminoacetate], the pest or weed control at 2 ppm in experiment [1] was found to be 100%; in experiment [3], 100%; in experiment [4], 98%; in experiment [5], 100%; in experiment [6] it was 100%. Further, the pest or weed control at 10 ppm in experiment [1], in experiment [3], in experiment [4], in experiment [5] and in experiment [6] was 100% in each case. The pest or weed control at 50 ppm in experiment [1], in experiment [3], in experiment [4], in experiment [5] and in experiment [6] was 100% throughout. Further, the pest or weed control at 100 ppm in experiment [1] turned out to be 100%; in experiment [2], 35%; in experiment [3] it was 100%; in experiment [4] it was 100%; in experiment [5] it was 100%; in experiment [6], 100%.

`CNC(=O)/C(=N/OC)c1ccccc1COc1ccc(C=C(Br)Br)cc1` [Example 8, (E)-2-(2-((4-(2,2-dibromovinyl)phenoxy)methyl)phenyl)-2-methoxyimino-N-methylacetamide]: the pest or weed control at 2 ppm was 90% in experiment [1], 90% in experiment [3], 98% in experiment [5] and 99% in experiment [6]. The pest or weed control at 10 ppm turned out to be 90% in experiment [1], 97% in experiment [3], 100% in experiment [5] and 100% in experiment [6]. Besides, the pest or weed control at 50 ppm in experiment [1] worked out at 98%; in experiment [3] it was 100%; in experiment [5], 100%; in experiment [6], 100%. For the same compound, the pest or weed control at 100 ppm worked out at 100% in experiment [1]; 7% in experiment [2]; 100% in experiment [3]; 32% in experiment [4]; 100% in experiment [5]; 100% in experiment [6].

For `CO/N=C(/C(=O)OC)c1ccccc1COc1ccc(C=C(F)F)cc1` [Example 9, methyl-(E)-2-(2-((4-(2,2-difluorovinyl)phenoxy)methyl)phenyl)-2-methoxyiminoacetate], the pest or weed control at 2 ppm was found to be 100% in experiment [1], 100% in experiment [3], 100% in experiment [5] and 15% in experiment [6]. Moreover, the pest or weed control at 10 ppm was 100% in experiment [1], 100% in experiment [3], 100% in experiment [5] and 60% in experiment [6]. Moreover, the pest or weed control at 50 ppm in experiment [1] worked out at 100%; in experiment [3], 100%; in experiment [5], 100%; in experiment [6], 93%. For the same compound, the pest or weed control at 100 ppm amounted to 100% in experiment [1]; 50% in experiment [2]; 100% in experiment [3]; 10% in experiment [4]; 100% in experiment [5]; 100% in experiment [6].

With `CNC(=O)/C(=N/OC)c1ccccc1COc1ccc(C=C(F)F)cc1` [Example 10, (E)-2-(2-((4-(2,2-difluorovinyl)phenoxy)methyl)phenyl)-2-methoxyimino-N-methylacetamide], the pest or weed control at 2 ppm in experiment [1], in experiment [3] and in experiment [5] was 100% in each case. Moreover, the pest or weed control at 10 ppm in experiment [1], in experiment [3] and in experiment [5] was 100% in each case. In addition, the pest or weed control at 50 ppm in experiment [1] came out at 100%; in experiment [3], 100%; in experiment [5], 100%; in experiment [6], 60%. Besides, the pest or weed control at 100 ppm in experiment [1] was found to be 100%; in experiment [2] it was 50%; in experiment [3], 100%; in experiment [4], 45%; in experiment [5], 100%; in experiment [6] it was 98%.
